Experimental findings from publication PMC4100265, “Inhibition of Human Cytochrome P450 Enzymes by Allergen Removed Rhus verniciflua Stoke Standardized Extract and Constituents” (Evidence-based Complementary and Alternative Medicine : eCAM, 2014) are described below.

Common to all, as to assay type: in vitro ADME
Data set [1] addresses T1, recombinant human CYP2C19 (Homo sapiens, UniProt P33261).
T1 construct: purchased Promega (P450-Glo Screening system); host or cells: baculovirus expression system
Put plainly: Luminogenic P450-Glo enzyme inhibition assay, CYP2C19. The method, then: (§1) The assay was carried out using P450-Glo Screening system from Promega (Promega Inc., Madison Wis., USA). It contains recombinant human CYP1A2, CYP2C9, CYP2C19, CYP2D6, and CYP3A4 enzymes in the membranes produced by a baculovirus expression system, specific luminogenic cytochrome enzyme substrates (luciferin 6-methyl ether, luciferin 6-benzyl ether, 6-deoxyluciferin, ethylene glycol ester of 6-deoxyluciferin, and ethylene glycol ester of luciferin 6-methyl ether), negative control membranes, a nicotinamide adenine dinucleotide phosphate hydrogen (NADPH) regeneration system containing NADP+, glucose-6-phosphate, magnesium chloride (MgCl2) and glucose-6-phosphate dehydrogenase (functioning to initiate and sustain the CYP450 reaction by maintaining a non-limiting NADPH system), reaction buffer, luciferin detection reagent, and Luciferin-Free Water. The negative control membranes were devoid of CYP activity. The luminogenic inhibition assays were performed following the protocols from Promega Corp. (Technical Bulletin, P450-Glo Assays, Promega Corp., 2009) and previous studies. […] The 12.5 μL of the luciferin-free water was added individually in both the “untreated” wells representing the values of total CYP activity and the “minus-P450 control” wells representing the values of the CYP-independent background luminescence. Secondly, 12.5 μL of the 4× reaction mixture (containing human CYP membrane preparations, the appropriate luminogenic substrate, and potassium phosphate buffer) was added to the “treated” and the “untreated” wells. The 12.5 μL of the 4× control reaction mixture (containing membrane preparations devoid of CYP enzymes, the appropriate luminogenic substrate, and potassium phosphate buffer) was added to the “minus-P450 control” wells. The plate was preincubated at room temperature (25°C) for 10 min, and then 25 μL of the 2× NADPH regeneration system was added to initiate the reaction. […] The luminescence in all of the samples was measured using a microplate reader as relative light units (RLU) after 20 min incubation to stabilize the luminescent signal. The assay experiments were repeated three independent times. The amount of light produced is directly proportional to the CYP enzyme activity. The net signals from untreated CYP reactions represent total CYP activity (100%). The modulation of the CYP activity by the test compound was determined by comparing the changes from the average net signal of untreated CYP reactions with the changes observed from the test compound. […] USA).

In data set [2] the target is T2, recombinant human CYP2C9 (Homo sapiens, UniProt P11712).
T2 construct: purchased Promega (P450-Glo Screening system); host or cells: baculovirus expression system
T2 sequence (P11712 whole entry): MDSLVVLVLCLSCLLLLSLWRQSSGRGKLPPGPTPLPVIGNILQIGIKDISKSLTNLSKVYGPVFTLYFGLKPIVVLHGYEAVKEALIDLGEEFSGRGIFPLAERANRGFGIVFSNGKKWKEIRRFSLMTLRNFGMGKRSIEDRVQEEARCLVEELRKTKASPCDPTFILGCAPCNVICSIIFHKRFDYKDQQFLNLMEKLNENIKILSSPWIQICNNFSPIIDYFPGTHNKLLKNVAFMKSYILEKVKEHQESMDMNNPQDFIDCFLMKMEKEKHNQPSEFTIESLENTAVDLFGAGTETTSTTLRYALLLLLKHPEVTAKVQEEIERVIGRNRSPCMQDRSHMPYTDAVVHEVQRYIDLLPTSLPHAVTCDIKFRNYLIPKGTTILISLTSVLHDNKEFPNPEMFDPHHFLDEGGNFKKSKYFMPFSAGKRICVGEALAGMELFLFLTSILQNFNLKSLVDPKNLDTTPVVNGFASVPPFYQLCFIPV
The experiment in a line: Luminogenic P450-Glo enzyme inhibition assay, CYP2C9. The method, then:
as §1

For data set [3], the target named is T3, CYP2D6 (Homo sapiens, UniProt P10635).
T3 construct: purchased Promega (P450-Glo Screening system); host or cells: baculovirus expression system
T3 sequence (P10635 whole entry): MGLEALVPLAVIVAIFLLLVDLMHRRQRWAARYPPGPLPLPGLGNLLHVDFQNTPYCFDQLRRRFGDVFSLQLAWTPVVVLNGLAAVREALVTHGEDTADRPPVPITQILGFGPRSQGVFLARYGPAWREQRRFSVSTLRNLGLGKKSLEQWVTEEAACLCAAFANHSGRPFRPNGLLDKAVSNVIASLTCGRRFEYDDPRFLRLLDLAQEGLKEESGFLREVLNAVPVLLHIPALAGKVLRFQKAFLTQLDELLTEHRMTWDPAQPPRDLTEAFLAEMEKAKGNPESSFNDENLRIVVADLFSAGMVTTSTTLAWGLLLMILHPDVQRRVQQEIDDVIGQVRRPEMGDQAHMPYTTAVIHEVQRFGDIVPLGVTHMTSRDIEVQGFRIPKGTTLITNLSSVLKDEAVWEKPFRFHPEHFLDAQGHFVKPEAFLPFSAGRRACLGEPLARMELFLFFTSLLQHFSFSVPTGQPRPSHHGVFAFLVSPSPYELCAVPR
Put plainly: Luminogenic P450-Glo enzyme inhibition assay, CYP2D6. The procedure: as §1

Data set [4] has as its target T4, recombinant human CYP1A2 (Homo sapiens, UniProt P05177).
T4 construct: purchased Promega (P450-Glo Screening system); host or cells: baculovirus expression system
T4 sequence (P05177 1-516): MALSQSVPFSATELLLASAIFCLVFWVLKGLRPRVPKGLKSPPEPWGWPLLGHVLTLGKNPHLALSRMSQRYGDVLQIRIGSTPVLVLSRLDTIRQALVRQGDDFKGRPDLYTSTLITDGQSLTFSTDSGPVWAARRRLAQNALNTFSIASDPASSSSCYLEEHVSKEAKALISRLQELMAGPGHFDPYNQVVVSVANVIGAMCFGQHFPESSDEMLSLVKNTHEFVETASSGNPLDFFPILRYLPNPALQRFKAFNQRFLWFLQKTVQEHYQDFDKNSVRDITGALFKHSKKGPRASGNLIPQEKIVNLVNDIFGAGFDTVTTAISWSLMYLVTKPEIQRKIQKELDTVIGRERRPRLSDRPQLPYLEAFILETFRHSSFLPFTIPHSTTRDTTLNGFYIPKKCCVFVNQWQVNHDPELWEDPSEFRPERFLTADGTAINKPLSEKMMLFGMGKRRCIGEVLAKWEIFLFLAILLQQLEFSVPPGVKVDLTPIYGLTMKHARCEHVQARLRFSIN
The experiment in a line: Luminogenic P450-Glo enzyme inhibition assay, CYP1A2. The procedure:
as §1

The target of data set [5] is T5, recombinant human CYP3A4 (Homo sapiens, UniProt P08684).
T5 construct: purchased Promega (P450-Glo Screening system); host or cells: baculovirus expression system
T5 sequence (P08684 whole entry): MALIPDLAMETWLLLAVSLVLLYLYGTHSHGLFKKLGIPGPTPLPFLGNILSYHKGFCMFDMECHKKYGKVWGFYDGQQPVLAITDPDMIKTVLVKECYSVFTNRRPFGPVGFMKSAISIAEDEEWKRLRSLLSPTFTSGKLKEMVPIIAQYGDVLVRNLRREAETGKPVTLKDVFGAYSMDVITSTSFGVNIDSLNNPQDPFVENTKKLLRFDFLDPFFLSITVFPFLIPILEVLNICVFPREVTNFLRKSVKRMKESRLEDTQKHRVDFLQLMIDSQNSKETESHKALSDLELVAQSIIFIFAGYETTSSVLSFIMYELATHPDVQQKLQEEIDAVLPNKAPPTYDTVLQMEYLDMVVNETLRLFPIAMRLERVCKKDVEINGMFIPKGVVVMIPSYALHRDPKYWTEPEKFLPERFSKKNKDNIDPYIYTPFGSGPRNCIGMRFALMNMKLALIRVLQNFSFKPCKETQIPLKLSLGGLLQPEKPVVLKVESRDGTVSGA
The experiment in a line: Luminogenic P450-Glo enzyme inhibition assay, CYP3A4. The method, then:
as §1

[6] abbreviates: classified by IC50 value, read-out: inhibitory potency class on CYP2C19.
The mark [7] stands for this setting: recombinant human enzyme, luminescent assay, 30 min incubation, read-out: IC50 CYP2C19 (converted).
Where [8] appears, read: classified by IC50 value, read-out: inhibitory potency class on CYP2C9.
Setting [9] is: recombinant human enzyme, luminescent assay, 30 min incubation, read-out: IC50 CYP2C9 (converted).
Where [10] appears, read: classified by IC50 value, read-out: inhibitory potency class on CYP2D6.
Setting [11] is: recombinant human enzyme, luminescent assay, 45 min incubation, read-out: IC50 CYP2D6 (converted).
[12] abbreviates: classified by IC50 value, read-out: inhibitory potency class on CYP1A2.
Where [13] appears, read: recombinant human enzyme, luminescent assay, 30 min incubation, read-out: IC50 CYP1A2 (converted).
The mark [14] stands for this setting: classified by IC50 value, read-out: inhibitory potency class on CYP3A4.
Setting [15] is: recombinant human enzyme, luminescent assay, 30 min incubation, read-out: IC50 CYP3A4 (converted).

SMILES strings stand for the structures. Where two headings read alike, the source gives them in different places.

T1 sequence (P33261 whole entry): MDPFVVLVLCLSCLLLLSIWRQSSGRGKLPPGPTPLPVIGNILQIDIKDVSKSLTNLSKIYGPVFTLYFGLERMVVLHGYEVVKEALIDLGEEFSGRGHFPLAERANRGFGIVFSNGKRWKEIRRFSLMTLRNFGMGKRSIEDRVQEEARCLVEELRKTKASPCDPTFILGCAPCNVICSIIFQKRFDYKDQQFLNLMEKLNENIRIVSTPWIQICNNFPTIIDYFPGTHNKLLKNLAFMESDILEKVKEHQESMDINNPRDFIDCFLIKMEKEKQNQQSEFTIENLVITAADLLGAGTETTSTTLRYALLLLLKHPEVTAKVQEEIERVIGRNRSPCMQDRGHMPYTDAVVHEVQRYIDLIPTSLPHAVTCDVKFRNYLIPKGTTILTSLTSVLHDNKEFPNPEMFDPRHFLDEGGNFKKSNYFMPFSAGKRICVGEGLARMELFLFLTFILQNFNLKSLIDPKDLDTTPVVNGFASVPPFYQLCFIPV

With `O=C1c2ccc(O)cc2OC(c2ccc(O)c(O)c2)C1O` (stereo not drawn) [Fustin, 2-(3,4-dihydroxyphenyl)-3,7-dihydroxy-2,3-dihydrochromen-4-one], the IC50 in data set [1] (setting [6]) was 69.4 to 347 µM; in data set [1] (setting [7]), 223 µM; in data set [2] (setting [8]) it was more than 347 µM; in data set [2] (setting [9]), 1870 µM; in data set [3] (setting [10]), more than 347 µM; in data set [3] (setting [11]), 18500 µM. The IC50 is more than 347 µM in data set [4] (setting [12]), 17100 µM in data set [4] (setting [13]), more than 347 µM in data set [5] (setting [14]) and 1610 µM in data set [5] (setting [15]).

On to `O=c1c(O)c(-c2ccc(O)c(O)c2)oc2cc(O)ccc12` [Fisetin, 2-(3,4-dihydroxyphenyl)-3,7-dihydroxychromen-4-one], for which the IC50 in data set [1] (setting [6]) is less than 69.9 µM; in data set [1] (setting [7]) it was less than 0.00349 µM; in data set [2] (setting [8]), less than 69.9 µM; in data set [2] (setting [9]), 18.9 µM; in data set [3] (setting [10]), 69.9 to 349 µM; in data set [3] (setting [11]) it was 163 µM. For the same molecule, the IC50 in data set [4] (setting [12]) was less than 69.9 µM; in data set [4] (setting [13]) it was 1.61 µM; in data set [5] (setting [14]), more than 349 µM; in data set [5] (setting [15]), 1080 µM. In addition, the IC50 at 45 min in data set [3] (human, classified by IC50 value, read-out: inhibitory potency class on CYP2D6) was more than 100 µg/mL.
